These results are taken from patent publication US20220112187A1, “PYRAZOLOPYRIDINE AMINE COMPOUNDS FOR THE TREATMENT OF AUTOIMMUNE DISEASE” (Hoffmann-La Roche Inc., priority 2018, published 2022).

The target of the experiment is T1, human TLR7 (Homo sapiens, UniProt Q9NYK1).
T1 sequence (Q9NYK1 27-1049): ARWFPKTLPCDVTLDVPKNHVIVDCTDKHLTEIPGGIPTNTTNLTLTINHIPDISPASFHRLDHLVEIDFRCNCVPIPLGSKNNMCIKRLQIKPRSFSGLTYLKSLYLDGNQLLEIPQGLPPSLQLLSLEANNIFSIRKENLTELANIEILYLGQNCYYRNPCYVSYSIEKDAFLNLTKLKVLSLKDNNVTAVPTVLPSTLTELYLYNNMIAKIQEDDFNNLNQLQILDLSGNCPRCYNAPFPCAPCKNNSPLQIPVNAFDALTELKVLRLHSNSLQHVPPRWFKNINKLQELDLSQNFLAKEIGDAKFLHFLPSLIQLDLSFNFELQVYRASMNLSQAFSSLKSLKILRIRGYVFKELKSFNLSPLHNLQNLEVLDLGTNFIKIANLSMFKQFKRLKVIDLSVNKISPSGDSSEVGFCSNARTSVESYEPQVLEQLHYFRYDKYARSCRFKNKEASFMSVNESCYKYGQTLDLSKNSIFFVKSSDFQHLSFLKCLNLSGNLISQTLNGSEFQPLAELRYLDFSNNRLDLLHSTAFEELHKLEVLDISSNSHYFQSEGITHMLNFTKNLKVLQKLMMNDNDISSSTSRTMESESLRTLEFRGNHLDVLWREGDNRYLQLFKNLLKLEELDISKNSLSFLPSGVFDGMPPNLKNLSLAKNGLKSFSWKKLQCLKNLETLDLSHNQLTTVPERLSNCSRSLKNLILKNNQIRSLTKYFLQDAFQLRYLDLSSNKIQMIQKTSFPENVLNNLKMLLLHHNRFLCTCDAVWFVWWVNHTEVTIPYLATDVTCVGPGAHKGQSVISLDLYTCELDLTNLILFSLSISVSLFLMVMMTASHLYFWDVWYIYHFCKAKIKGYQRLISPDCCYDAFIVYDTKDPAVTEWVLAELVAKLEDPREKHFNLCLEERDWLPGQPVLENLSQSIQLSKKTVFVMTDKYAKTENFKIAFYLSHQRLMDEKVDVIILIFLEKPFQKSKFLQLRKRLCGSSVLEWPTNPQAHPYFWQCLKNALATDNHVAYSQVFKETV
The experiment is described as follows: HEK293-Blue-hTLR-7 cells assay (SEAP reporter, R848 stimulation). As to conditions: HEK293-Blue-hTLR7 cells, R848 ligand, 20 hrs incubation. The format is cell-based. From the text: A stable HEK293-Blue-hTLR-7 cell line was purchased from InvivoGen (Cat. #: hkb-htlr7, San Diego, Calif., USA). These cells were originally designed for studying the stimulation of human TLR7 by monitoring the activation of NF-κB. A SEAP (secreted embryonic alkaline phosphatase) reporter gene was placed under the control of the IFN-β minimal promoter fused to five NF-κB and AP-1-binding sites. The SEAP was induced by activating NF-κB and AP-1 via stimulating HEK-Blue hTLR7 cells with TLR7 ligands. Therefore the reporter expression was declined by TLR7 antagonist under the stimulation of a ligand, such as R848 (Resiquimod), for incubation of 20 hrs. The cell culture supernatant SEAP reporter activity was determined using QUANTI-Blue™ kit (Cat. #: rep-qb1, Invivogen, San Diego, Ca, USA) at a wavelength of 640 nm, a detection medium that turns purple or blue in the presence of alkaline phosphatase.
HEK293-Blue-hTLR7 cells were incubated at a density of 250,000˜450,000 cells/mL in a volume of 170 μL in a 96-well plate in Dulbecco's Modified Eagle's medium (DMEM) containing 4.5 g/L glucose, 50 U/mL penicillin, […], […], 2 mM L-glutamine, 10% (v/v) heat-inactivated fetal bovine serum with addition of 20 μL test compound in a serial dilution in the presence of final DMSO at 1% and 10 μL of 20 uM R848 in above DMEM, perform incubation under 37° C. in a CO2 incubator for 20 hrs. Then 20 μL of the supernatant from each well was incubated with 180 μL Quanti-blue substrate solution at 37° C. for 2 hrs and the absorbance was read at 620˜655 nm using a spectrophotometer. The signalling pathway that TLR7 activation leads to downstream NF-κB activation has been widely accepted, and therefore similar reporter assay was modified for evaluating TLR7 antagonist.
`C[C@@H]1CN(c2ccc(C#N)n3nccc23)C[C@H](CN2CCOC3(CCNCC3)C2)O1` [Example 71, 4-[(2R,6S)-2-methyl-6-(1-oxa-4,9-diazaspiro[5.5]undecan-4-ylmethyl)morpholin-4-yl]pyrazolo[1,5-a]pyridine-7-carbonitrile] showed an IC50 of 450 nM. This counts as sub-micromolar.
The same measure for `C[C@@H]1CN(c2ccc(C#N)n3nccc23)C[C@H](CN2CCC3(CCCCN3)C2)O1` (stereo partly drawn) [Example 42, 4-[(2S,6R)-2-(2,6-diazaspiro[4.5]decan-2-ylmethyl)-6-methyl-morpholin-4-yl]pyrazolo[1,5-a]pyridine-7-carbonitrile]: 98 nM.
Molecule `C[C@@H]1CN(c2ccc(C#N)n3nccc23)C[C@H](CN2CCC3NCC3C2)O1` (stereo partly drawn) [Example 70, 4-[(2S,6R)-2-(3,7-diazabicyclo[4.2.0]octan-3-ylmethyl)-6-methyl-morpholin-4-yl]pyrazolo[1,5-a]pyridine-7-carbonitrile] had an IC50 of 230 nM.
As to `C[C@@H]1CN(c2ccc(C#N)n3nccc23)C[C@H](CN2CCC3(CCNC3)C2=O)O1` (stereo partly drawn) [Example 21, 4-[(2R,6R)-2-methyl-6-[(1-oxo-2,7-diazaspiro[4.4]nonan-2-yl)methyl]morpholin-4-yl]pyrazolo[1,5-a]pyridine-7-carbonitrile], the IC50 amounted to 98 nM.
Molecule `C[C@@H]1CN(c2ccc(C#N)n3ncc(F)c23)C[C@H](CN2CCCC3(CCNCC3)C2)O1` [Example 67, 4-[(2S,6R)-2-(2,9-diazaspiro[5.5]undecan-2-ylmethyl)-6-methyl-morpholin-4-yl]-3-fluoro-pyrazolo[1,5-a]pyridine-7-carbonitrile] yielded an IC50 of 280 nM.
The figure for `C[C@@H]1CN(c2ccc(C#N)n3nccc23)C[C@H](CN2CCC(N3CCCCC3)CC2)O1` [Example 16, 4-[(2R,6S)-2-methyl-6-[[4-(1-piperidyl)-1-piperidyl]methyl]morpholin-4-yl]pyrazolo[1,5-a]pyridine-7-carbonitrile] is 100 nM; for `C[C@@H]1CN(c2ccc(C#N)n3nccc23)C[C@H](CN2CCC(N)(c3ccccc3)CC2)O1` [Example 73, 4-[(2S,6R)-2-[(4-amino-4-phenyl-1-piperidyl)methyl]-6-methyl-morpholin-4-yl]pyrazolo[1,5-a]pyridine-7-carbonitrile] it is 150 nM.
The same measure for `C[C@@H]1CN(c2ccc(C#N)n3nccc23)C[C@H](CN2CC3(CCNC3)CC2=O)O1` (stereo partly drawn) [Example 20, 4-[(2R,6R)-2-methyl-6-[(3-oxo-2,7-diazaspiro[4.4]nonan-2-yl)methyl]morpholin-4-yl]pyrazolo[1,5-a]pyridine-7-carbonitrile]: 650 nM; for `C[C@@H]1CN(c2ccc(C#N)n3nccc23)C[C@H](CN2CCC(N3CCCCCC3)CC2)O1` [Example 4, 4-[(2S,6R)-2-[[4-(azepan-1-yl)-1-piperidyl]methyl]-6-methyl-morpholin-4-yl]pyrazolo[1,5-a]pyridine-7-carbonitrile]: 180 nM.
The same measure for `C[C@@H]1CN(c2ccc(C#N)n3nccc23)C[C@H](CN2CCCC3NCCCC32)O1` (stereo partly drawn) [Example 64, 4-[(2S,6R)-2-(3,4,4a,5,6,7,8,8a-octahydro-2H-1,5-naphthyridin-1-ylmethyl)-6-methyl-morpholin-4-yl]pyrazolo[1,5-a]pyridine-7-carbonitrile]: 250 nM; for `C[C@@H]1CN(c2ccc(C#N)n3nccc23)C[C@H](CN2CCN(C3CCNCC3)CC2Cc2ccccc2)O1` (stereo partly drawn) [Example 77, 4-[(2S,6R)-2-[[2-benzyl-4-(4-piperidyl)piperazin-1-yl]methyl]-6-methyl-morpholin-4-yl]pyrazolo[1,5-a]pyridine-7-carbonitrile]: 160 nM.
For `C[C@@H]1CN(c2ccc(C#N)n3nccc23)C[C@H](CN2CCC(N3CCCC3)CC2)O1` [Example 54, 4-[(2R,6S)-2-methyl-6-[(4-pyrrolidin-1-yl-1-piperidyl)methyl]morpholin-4-yl]pyrazolo[1,5-a]pyridine-7-carbonitrile], the 50% inhibitory concentration (IC50) was determined as 190 nM. The IC50 values of the last two molecules are within 1.5-fold of each other.
The same measure for `C[C@@H]1CN(c2ccc(C#N)n3nccc23)C[C@H](CN2CCC3NCCC3C2)O1` (stereo partly drawn) [Example 41, 4-[(2S,6R)-2-(1,2,3,3a,4,6,7,7a-octahydropyrrolo[3,2-c]pyridin-5-ylmethyl)-6-methyl-morpholin-4-yl]pyrazolo[1,5-a]pyridine-7-carbonitrile]: 78 nM; for `C[C@@H]1CN(c2ccc(C#N)n3nccc23)C[C@H](CN2CCNCC2Cc2ccccc2)O1` (stereo partly drawn) [Example 59, 4-[(2S,6R)-2-[(2-benzylpiperazin-1-yl)methyl]-6-methyl-morpholin-4-yl]pyrazolo[1,5-a]pyridine-7-carbonitrile]: 7 nM; for `C[C@@H]1CN(c2ccc(C#N)n3nccc23)C[C@H](CN2CCNC3(CC3)C2)O1` [Example 40, 4-[(2S,6R)-2-(4,7-diazaspiro[2.5]octan-7-ylmethyl)-6-methyl-morpholin-4-yl]pyrazolo[1,5-a]pyridine-7-carbonitrile]: 95 nM.
The same measure for `C[C@@H]1CN(c2ccc(C#N)n3nccc23)C[C@H](CN2CC3CCC(C2)N3)O1` [Example 31, 4-[(2S,6R)-2-(3,8-diazabicyclo[3.2.1]octan-3-ylmethyl)-6-methyl-morpholin-4-yl]pyrazolo[1,5-a]pyridine-7-carbonitrile]: 53 nM.
The figure for `C[C@@H]1CN(c2ccc(C#N)n3nccc23)C[C@H](CN2CCN(C)CC2)O1` [Example 15, 4-[(2R,6S)-2-methyl-6-[(4-methylpiperazin-1-yl)methyl]morpholin-4-yl]pyrazolo[1,5-a]pyridine-7-carbonitrile] is 77 nM; for `C[C@@H]1CN(c2ccc(C#N)n3nccc23)C[C@H](CN2CCN(C(=O)CN)CC2)O1` [Example 14, 4-[(2S,6R)-2-[[4-(2-aminoacetyl)piperazin-1-yl]methyl]-6-methyl-morpholin-4-yl]pyrazolo[1,5-a]pyridine-7-carbonitrile] it is 460 nM; for `C[C@@H]1CN(c2ccc(C#N)n3nccc23)C[C@H](CN2C3CCCC2CC(N)C3)O1` (stereo partly drawn) [Example 65, Endo-4-[(2S,6R)-2-[(3-amino-9-azabicyclo[3.3.1]nonan-9-yl)methyl]-6-methyl-morpholin-4-yl]pyrazolo[1,5-a]pyridine-7-carbonitrile] it is 460 nM.
In the case of `CC1CC(N)CCN1C[C@H]1CN(c2ccc(C#N)n3nccc23)C[C@@H](C)O1` (stereo partly drawn) [Example 51, 4-[(2S,6R)-2-[(4-amino-2-methyl-1-piperidyl)methyl]-6-methyl-morpholin-4-yl]pyrazolo[1,5-a]pyridine-7-carbonitrile], the IC50 amounted to 390 nM.
For `C[C@@H]1CN(c2ccc(C#N)n3nccc23)C[C@H](CN2CCC3(CCCCN3)CC2)O1` [Example 47, 4-[(2S,6R)-2-(1,9-diazaspiro[5.5]undecan-9-ylmethyl)-6-methyl-morpholin-4-yl]pyrazolo[1,5-a]pyridine-7-carbonitrile], half-maximal inhibition (IC50) was put at 180 nM.
The figure for `C[C@@H]1CN(c2ccc(C#N)n3nccc23)C[C@H](CN2CCNCC2)O1` [Example 5, 4-[(2R,6S)-2-methyl-6-(piperazin-1-ylmethyl)morpholin-4-yl]pyrazolo[1,5-a]pyridine-7-carbonitrile] is 54 nM.
The figure for `C[C@@H]1CN(c2ccc(C#N)n3nccc23)C[C@H](CN2CC3(CC(N)C3)C2)O1` [Example 11, 4-[(2S,6R)-2-[(6-amino-2-azaspiro[3.3]heptan-2-yl)methyl]-6-methyl-morpholin-4-yl]pyrazolo[1,5-a]pyridine-7-carbonitrile] is 160 nM.

The term IC50 denotes the point on the concentration scale where inhibition reaches its midpoint. The low end stands for higher potency, the high end for lower potency.
